Assay results as given in ChEMBL document CHEMBL6109170, “Integrated Advancements in Neuroplasticity, Psychedelic Therapeutics, and AI-Driven Innovations for Precision Medicine” (ACS Med Chem Lett, 2025).
pKi: −log10 of the molar value.

biological target: T1, 5-hydroxytryptamine receptor 1A (Homo sapiens, UniProt P08908); assay: Binding affinity to 5HT1A receptor (unknown origin) assessed as inhibition constant by radioligand binding assay
T1 sequence (P08908 whole entry): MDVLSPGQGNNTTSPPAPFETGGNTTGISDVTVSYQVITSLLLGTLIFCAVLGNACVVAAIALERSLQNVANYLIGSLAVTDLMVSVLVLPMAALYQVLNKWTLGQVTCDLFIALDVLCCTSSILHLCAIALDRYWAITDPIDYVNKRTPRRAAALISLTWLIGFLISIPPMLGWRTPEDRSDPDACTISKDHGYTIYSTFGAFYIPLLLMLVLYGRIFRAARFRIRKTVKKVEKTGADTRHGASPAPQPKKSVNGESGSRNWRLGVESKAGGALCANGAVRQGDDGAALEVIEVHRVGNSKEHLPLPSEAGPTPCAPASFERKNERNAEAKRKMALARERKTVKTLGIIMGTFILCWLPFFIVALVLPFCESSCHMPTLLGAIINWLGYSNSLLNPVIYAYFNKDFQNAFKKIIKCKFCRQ

Structure (SMILES) | pKi
CN(C)CCc1c(Cl)[nH]c2ccccc12 | < 5.00
CC(=O)Oc1cccc2[nH]cc(CCN(C)C)c12 | < 5.00
CC(C)N(CCc1c(Br)[nH]c2ccccc12)C(C)C | < 5.00
CC(=O)Nc1cccc2[nH]cc(CCN(C)C)c12 | < 5.00
CC(=O)Oc1cccc2[nH]c(Br)c(CCN(C)C)c12 | < 5.00

biological target: 5-hydroxytryptamine receptor 2A (Homo sapiens, UniProt P28223); assay: Binding affinity to 5-HT2A receptor (unknown origin) assessed as inhibition constant by radioligand binding assay
Sequence (P28223 whole entry): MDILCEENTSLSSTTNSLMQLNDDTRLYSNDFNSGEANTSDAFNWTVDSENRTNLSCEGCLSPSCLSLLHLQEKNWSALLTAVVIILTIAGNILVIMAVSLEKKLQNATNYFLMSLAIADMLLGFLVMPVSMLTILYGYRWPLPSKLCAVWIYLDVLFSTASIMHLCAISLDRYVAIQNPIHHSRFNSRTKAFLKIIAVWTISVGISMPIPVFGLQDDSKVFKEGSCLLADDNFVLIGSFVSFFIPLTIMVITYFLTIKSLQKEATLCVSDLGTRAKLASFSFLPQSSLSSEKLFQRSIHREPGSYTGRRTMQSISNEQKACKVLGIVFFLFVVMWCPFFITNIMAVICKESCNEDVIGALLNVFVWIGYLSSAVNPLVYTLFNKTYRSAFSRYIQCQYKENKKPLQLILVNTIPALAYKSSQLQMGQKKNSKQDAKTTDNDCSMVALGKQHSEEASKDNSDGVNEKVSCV

Structure (SMILES) | pKi
CC(C)N(CCc1c(Br)[nH]c2ccccc12)C(C)C | < 5.00
